Assay results: ChEMBL document CHEMBL1136544, “3-(2-carboxyethyl)-4,6-dichloro-1H-indole-2-carboxylic acid: an allosteric inhibitor of fructose-1,6-bisphosphatase at the AMP site” (Bioorg Med Chem Lett, 2003)

Target: not listed separately
Assay: Inhibitory activity against Fructose-1,6-bisphosphatase (F16BPase) in human liver
Type: tissue-based

`O=C(O)CCCc1c(C(=O)O)[nH]c2cc(Cl)cc(Cl)c12` and `O=C(O)CCCCc1c(C(=O)O)[nH]c2cc(Cl)cc(Cl)c12` are within 1.5-fold of each other in IC50: 1 µM for the first, 1.2 µM for the second.

`O=C(O)CCc1c(C(=O)NO)[nH]c2cc(Cl)cc(Cl)c12` and `NC(=O)c1[nH]c2cc(Cl)cc(Cl)c2c1CCC(=O)O` cannot be ordered by IC50: greater than 10 µM for the first, greater than 10 µM for the second.

`O=C(O)Cc1c(C(=O)O)[nH]c2cc(Cl)cc(Cl)c12` and `NC(=O)CCc1c(C(=O)O)[nH]c2cc(Cl)cc(Cl)c12` are within 1.5-fold of each other in IC50: 2.5 µM for the first, 2.2 µM for the second.

Going from `COC(=O)CCc1c(C(=O)O)[nH]c2cc(Cl)cc(Cl)c12` to `O=C(CCc1c(C(=O)O)[nH]c2cc(Cl)cc(Cl)c12)NO`, the IC50 falls from 7 µM to 1.5 µM (4.7-fold). The second is the more potent here.

Compared with `CN(C)C(=O)CCc1c(C(=O)O)[nH]c2cc(Cl)cc(Cl)c12`, `CN(C)C(=O)c1[nH]c2cc(Cl)cc(Cl)c2c1CCC(=O)O` is higher in IC50: 1.7 µM for the first, greater than 10 µM for the second.

`Cn1c(C(=O)O)c(CCC(=O)O)c2c(Cl)cc(Cl)cc21` and `O=C(O)CCc1c(CO)[nH]c2cc(Cl)cc(Cl)c12` cannot be ordered by IC50: greater than 10 µM for the first, greater than 10 µM for the second.

Compared with `O=C(O)c1[nH]c2cc(Cl)cc(Cl)c2c1CCCO`, `CCOC(=O)c1[nH]c2cc(Cl)cc(Cl)c2c1CCC(=O)O` is higher in IC50: 2.7 µM for the first, greater than 10 µM for the second.

Target: not listed separately
Assay: Inhibitory activity against Fructose-1,6-bisphosphatase (F16BPase) in rabbit liver
Type: tissue-based, Oryctolagus cuniculus

`O=C(O)CCc1c(C(=O)O)[nH]c2cc(Cl)cc(Cl)c12` showed an IC50 of 0.21 µM.

Target: not listed separately
Assay: Inhibitory activity against Fructose-1,6-bisphosphatase (F16BPase) in rat liver
Type: tissue-based

`O=C(O)CCc1c(C(=O)O)[nH]c2cc(Cl)cc(Cl)c12` gave an IC50 of 11 µM.

Target: T1, Fructose-1,6-bisphosphatase 1 (Sus scrofa, UniProt P00636)
T1 sequence (P00636 whole entry): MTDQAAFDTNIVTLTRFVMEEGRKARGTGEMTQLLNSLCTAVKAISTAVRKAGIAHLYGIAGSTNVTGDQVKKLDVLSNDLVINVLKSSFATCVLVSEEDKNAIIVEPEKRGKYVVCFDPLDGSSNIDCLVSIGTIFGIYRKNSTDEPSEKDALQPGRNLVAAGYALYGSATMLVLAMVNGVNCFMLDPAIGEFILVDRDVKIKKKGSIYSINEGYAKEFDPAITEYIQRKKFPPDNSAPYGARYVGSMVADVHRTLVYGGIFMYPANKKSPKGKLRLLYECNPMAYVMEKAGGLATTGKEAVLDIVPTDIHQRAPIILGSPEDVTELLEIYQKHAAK
Assay: Inhibitory activity against Fructose-1,6-bisphosphatase (F16BPase) in porcine kidney
Type: tissue-based

Work on `O=C(O)CCc1c(C(=O)O)[nH]c2cc(Cl)cc(Cl)c12` yielded an IC50 of 1 µM.
